pEC50, pIC50: −log10 of the molar value.
Legend:
[1] = system: Mus musculus; test: Suppression of ear thickness in mouse model of IL-23 induced acanthosis model of psoriasis at 30 mg/kg, po BID for 10 days measured every other day relative to control; format: functional; conditions: 240 h
[2] = system: Mus musculus; test: Suppression of IL-17F RNA expression in skin region of mouse model of IL-23 induced acanthosis model of psoriasis at 3 mg/kg, po BID for 10 days measured every other day relative to control; format: functional; conditions: 240 h
[3] = Half life in dog at 1 mg/kg, iv; format: ADME, organism-based, Canis lupus familiaris; conditions: in vivo
[4] = target: T1, Cytochrome P450 1A2 (Homo sapiens, UniProt P05177); test: Inhibition of recombinant CYP1A2 (unknown origin); format: ADME
T1 sequence (P05177 whole entry): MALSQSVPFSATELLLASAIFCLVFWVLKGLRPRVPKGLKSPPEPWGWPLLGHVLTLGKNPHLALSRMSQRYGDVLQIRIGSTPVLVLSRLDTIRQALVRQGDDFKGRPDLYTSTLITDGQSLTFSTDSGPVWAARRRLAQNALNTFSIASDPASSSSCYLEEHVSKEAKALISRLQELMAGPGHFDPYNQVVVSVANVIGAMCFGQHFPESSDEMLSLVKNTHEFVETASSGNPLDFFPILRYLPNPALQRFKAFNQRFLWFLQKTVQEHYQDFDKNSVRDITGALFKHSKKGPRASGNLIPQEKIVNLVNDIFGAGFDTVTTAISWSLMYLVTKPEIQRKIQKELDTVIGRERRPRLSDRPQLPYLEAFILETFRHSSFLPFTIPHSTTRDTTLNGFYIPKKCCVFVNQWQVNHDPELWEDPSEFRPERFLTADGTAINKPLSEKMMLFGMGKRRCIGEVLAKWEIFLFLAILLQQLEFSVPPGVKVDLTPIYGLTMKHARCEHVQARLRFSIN

[5] = Total AUC in dog at 1 mg/kg, po; format: ADME, organism-based, Canis lupus familiaris; parameters: dose 1 mg/kg, route oral, time AUCmax; conditions: in vivo
[6] = Half life in mouse at 2 mg/kg, iv; format: ADME, organism-based; conditions: in vivo
[7] = Total AUC in rat at 4 mg/kg, po; format: ADME, organism-based; parameters: dose 4 mg/kg, route oral, time AUCmax; conditions: in vivo
[8] = target: T2, Nuclear receptor subfamily 1 group I member 2 (Homo sapiens, UniProt O75469); test: Agonist activity at PXR (unknown origin) by Gal4-Luc reporter gene assay)
T2 sequence (O75469 whole entry): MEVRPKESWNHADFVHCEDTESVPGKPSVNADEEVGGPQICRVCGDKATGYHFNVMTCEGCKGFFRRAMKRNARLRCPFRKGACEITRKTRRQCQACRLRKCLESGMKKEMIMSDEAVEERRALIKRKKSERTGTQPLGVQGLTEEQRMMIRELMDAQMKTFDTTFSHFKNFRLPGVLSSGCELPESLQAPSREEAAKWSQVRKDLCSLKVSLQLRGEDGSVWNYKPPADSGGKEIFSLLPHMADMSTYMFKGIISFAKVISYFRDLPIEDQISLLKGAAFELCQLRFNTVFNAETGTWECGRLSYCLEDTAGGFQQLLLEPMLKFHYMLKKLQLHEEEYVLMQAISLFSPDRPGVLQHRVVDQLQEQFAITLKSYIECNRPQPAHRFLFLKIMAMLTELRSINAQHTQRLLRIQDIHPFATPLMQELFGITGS

[9] = Volume of distribution at steady state in mouse at 2 mg/kg, iv; format: ADME, organism-based; conditions: in vivo, read-out: Vdss
[10] = target: T3, Oxysterols receptor LXR-alpha (Homo sapiens, UniProt Q13133); test: Agonist activity at LXRalpha (unknown origin) by Gal4-Luc reporter gene assay
T3 sequence (Q13133 whole entry): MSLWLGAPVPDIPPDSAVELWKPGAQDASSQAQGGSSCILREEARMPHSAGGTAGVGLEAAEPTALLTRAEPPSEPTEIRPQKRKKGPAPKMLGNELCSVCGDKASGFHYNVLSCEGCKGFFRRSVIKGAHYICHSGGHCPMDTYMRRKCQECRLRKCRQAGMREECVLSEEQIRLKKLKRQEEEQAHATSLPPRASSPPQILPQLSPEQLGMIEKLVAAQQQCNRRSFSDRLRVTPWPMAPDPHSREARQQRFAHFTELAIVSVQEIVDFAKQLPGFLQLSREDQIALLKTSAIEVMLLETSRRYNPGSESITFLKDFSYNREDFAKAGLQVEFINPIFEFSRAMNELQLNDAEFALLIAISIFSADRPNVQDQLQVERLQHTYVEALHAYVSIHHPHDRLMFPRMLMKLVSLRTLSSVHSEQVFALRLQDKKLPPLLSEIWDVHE

[11] = target: T4, Nuclear receptor ROR-beta (Homo sapiens, UniProt Q92753); test: Activity at RORbeta (unknown origin)
T4 sequence (Q92753 whole entry): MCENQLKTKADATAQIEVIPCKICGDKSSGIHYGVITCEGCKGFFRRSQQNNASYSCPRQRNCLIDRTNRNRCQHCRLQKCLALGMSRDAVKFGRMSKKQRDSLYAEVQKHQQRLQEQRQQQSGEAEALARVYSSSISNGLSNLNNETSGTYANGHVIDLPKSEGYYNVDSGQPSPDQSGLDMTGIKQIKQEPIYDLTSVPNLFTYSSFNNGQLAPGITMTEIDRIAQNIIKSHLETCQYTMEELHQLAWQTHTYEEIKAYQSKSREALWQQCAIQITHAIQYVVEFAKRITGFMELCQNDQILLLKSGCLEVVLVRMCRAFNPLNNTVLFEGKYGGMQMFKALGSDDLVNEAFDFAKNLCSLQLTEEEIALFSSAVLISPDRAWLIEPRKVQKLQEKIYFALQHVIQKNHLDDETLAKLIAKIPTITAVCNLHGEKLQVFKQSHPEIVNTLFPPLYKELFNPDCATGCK

[12] = target: Cytochrome P450 2C9 (Homo sapiens, UniProt P11712); test: Inhibition of recombinant CYP2C9 (unknown origin); format: ADME
[13] = Half life in mouse liver microsomes; format: ADME, Microsome
[14] = Oral bioavailability in mouse at 4 mg/kg; format: ADME, organism-based; conditions: in vivo
[15] = target: T5, Cytochrome P450 2C8 (Homo sapiens, UniProt P10632); test: Inhibition of recombinant CYP2C8 (unknown origin); format: ADME
T5 sequence (P10632 whole entry): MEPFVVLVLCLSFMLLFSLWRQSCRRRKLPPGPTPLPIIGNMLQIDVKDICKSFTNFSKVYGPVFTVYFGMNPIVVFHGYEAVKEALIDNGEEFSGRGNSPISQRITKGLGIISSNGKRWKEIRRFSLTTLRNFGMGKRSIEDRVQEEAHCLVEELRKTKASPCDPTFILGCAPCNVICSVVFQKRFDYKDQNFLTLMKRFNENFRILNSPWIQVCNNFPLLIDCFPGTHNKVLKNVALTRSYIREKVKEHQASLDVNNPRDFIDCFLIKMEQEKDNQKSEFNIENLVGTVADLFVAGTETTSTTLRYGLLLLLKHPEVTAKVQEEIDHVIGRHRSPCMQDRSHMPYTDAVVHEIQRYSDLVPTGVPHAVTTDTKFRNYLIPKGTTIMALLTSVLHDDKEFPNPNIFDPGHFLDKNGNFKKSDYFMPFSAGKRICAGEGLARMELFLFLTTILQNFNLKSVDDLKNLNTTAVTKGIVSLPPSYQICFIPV

Sequence of Cytochrome P450 2C9 (P11712 whole entry): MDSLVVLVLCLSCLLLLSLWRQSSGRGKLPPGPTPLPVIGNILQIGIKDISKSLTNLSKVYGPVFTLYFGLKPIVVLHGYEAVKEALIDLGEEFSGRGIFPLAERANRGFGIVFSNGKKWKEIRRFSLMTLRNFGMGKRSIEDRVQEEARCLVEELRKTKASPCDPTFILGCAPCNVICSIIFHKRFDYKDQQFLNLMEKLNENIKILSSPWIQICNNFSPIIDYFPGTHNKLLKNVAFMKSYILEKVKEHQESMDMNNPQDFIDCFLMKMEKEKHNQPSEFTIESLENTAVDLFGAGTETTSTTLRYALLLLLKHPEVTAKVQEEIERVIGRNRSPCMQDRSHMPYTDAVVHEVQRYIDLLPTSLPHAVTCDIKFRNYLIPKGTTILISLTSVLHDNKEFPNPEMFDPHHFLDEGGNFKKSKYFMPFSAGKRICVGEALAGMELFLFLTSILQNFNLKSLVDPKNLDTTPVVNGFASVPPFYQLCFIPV

For O=C(N1CC[C@@]2(S(=O)(=O)c3ccc(F)cc3)c3ccc(C(F)(C(F)(F)F)C(F)(F)F)cc3CC[C@@H]12)C1(O)CCS(=O)(=O)CC1, which inhibition in vivo at 30 mg/kg [1] is on record?
The inhibition in vivo at 30 mg/kg was 57%.

And the inhibition in vivo at 3 mg/kg [2]?
The inhibition in vivo at 3 mg/kg was 41%.

And the half-life [3]?
Its half-life is 87 h.

And the pIC50 [4]?
The pIC50 was under 4.70.

What about the AUC [5] of the same compound?
The AUC was 78 µM·h.

And the half-life [6]?
The half-life was 15 h.

What about the AUC [7] of the same compound?
The AUC was 17 µM·h.

And the pEC50 [8]?
The pEC50 was under 4.30.

And the Vd [9]?
The Vd was 2.7 L/kg.

What about the pEC50 [10] of the same compound?
Its pEC50 is under 5.12.

And the pIC50 [11]?
The pIC50 was under 5.00.

And the pIC50 [12]?
The pIC50 was 5.00.

What about the half-life [13] of the same compound?
Its half-life is over 2 h.

What about the bioavailability [14] of the same compound?
The bioavailability was 100%.

And the pIC50 [15]?
The pIC50 was 4.82.
